Data: patent publication US8415309B2, “Bicyclic nucleosides and nucleotides as therapeutic agents” (priority 2009, dated 2013)

Tests used:
HCV NS5b polymerase = target: T1, HCV NS5b polymerase (Hepatitis C virus genotype 1b, UniProt P26663); test: HCV NS5b Polymerase Ki Determination Assay; format: biochemical
T1 construct: 100 nM HCV NS5bΔ55 (genotype 1b) in a 50 μl reaction mixture
Procedure: A modified method of the NS5b Polymerase inhibition assay was used to determine the Ki and the mode of action for NS5b inhibitor compounds. The enzyme and template were fixed at 100 nM and 20 µg/mL and all other reaction conditions were identical to the NS5b polymerase inhibition assay. The velocity of NS5b reactions were monitored at different ATP and inhibitor concentrations. The ATP concentration ranged from 0.1 μM to 1000 μM, and the concentration of the inhibitor ranged from 0.003 fold to 7 fold of the IC50 value. Velocities obtained at each ATP and inhibitor concentration were analysed using Graph Pad Prism to identify the mode of inhibition and Ki for inhibitor compounds. Under these conditions, the Ki for Compound 25 is 0.08 μM.

[1] = test system: primary human hepatocytes; test: In vitro anabolism of Compound 9, intracellular triphosphate in primary human hepatocytes; format: in vitro ADME
Procedure: (§1) In vitro anabolism of Compound 9 and the intracellular accumulation of its triphosphate (Compound 25) were studied in adherent Huh-7 and plated primary human hepatocytes. The Huh-7 human hepatoma liver cells (JCRB0403 http://cellbank.nibio.go.jp/) are maintained in DMEM containing 10% fetal bovine serum (FBS). Huh-7 cell clones carrying a HCV subgenomic replicon (Lohmann et al., 1999. Science 285: 110-113) are maintained in DMEM supplemented with 10% FBS and 0.25 mg/ml G418. The cell lines are grown at 37° C. in a 5% CO2-95% air atmosphere. Plated primary human hepatocytes (6-well Collagen/No Overlay) were purchased from Cellz Direct (NC, USA) and maintained in InVitroGro Medium (Celsis, In Vitro Technologies, MD USA) under the same incubation conditions.
(§2) For intracellular anabolism studies, Huh-7 cells are trypsinized, harvested, re-suspended in DMEM supplemented with 10% FBS, counted and seeded at a density of 0.7×10^6 cells per well in a six-well plate and incubated for a period of 24 hr at 37° C. in 5% CO^2 atmosphere. Media is removed and replaced with fresh DMEM+10% FBS containing 10 μM Compound 9 for a period of 24 hr at 37° C. The cell monolayer is then quickly washed three times with drug-free medium to remove extracellular Compound 9 and each well is incubated with fresh DMEM+10% FBS for a specified time period (i.e. 6-wells at 0, 2, 4, 8, 24 and 48 hr). At the end of the incubation period, the medium is aspirated from the well and the cell monolayer is washed with cold phosphate buffered saline, pH 7.4. The washed cell monolayer is treated with 1.0 ml ice-cold 70% methanol:water, scraped and harvested into a centrifuge tube and then sonicated for 1 min at 4° C. The resulting cell lysate is stored overnight at −80° C. and subsequently used to extract the metabolites of Compound 9. Isolation of Compound 9 and the intracellular metabolites of Compound 9 from plated primary human hepatocytes uses similar experimental conditions, except that InVitroGro Medium is used as the cell culture medium.
(§3) Sample Analysis for intracellular nucleoside metabolites: The cell lysate samples are thawed on ice, and subjected to two freeze/thaw cycles in a dry ice/acetone bath. Cells extracts are vortexed and centrifuged at 16000 g for 5 min at 4° C. and 40 μL of supernatant is injected for analysis using a API4000 triple quadrupole system. The Shimadzu LC autosampler is set at 4° C. to minimize evaporation. Compound 9 mono-, di- and triphosphate (Compound 25) are separated using a pH gradient on a Biobasic AX, 3.0×50 mm column maintained at 40° C. […] The respective metabolites are identified and quantified by comparing their chromatographic profiles and peak area response with those of authentic standards.

[2] = as above; format: in vitro ADME; settings: human, plated primary human hepatocytes, Human Hepatocytes
Procedure: as §1, §2, §3

[3] = target: T2, HCV NS5bΔ55 (genotype 1b) (Hepatitis C virus genotype 1b, UniProt P26663); test: HCV Polymerase Inhibition Assay; format: biochemical
T2 construct: 100 nM HCV NS5bΔ55 (genotype 1b) in a 50 μl reaction mixture
T2 sequence (P26663 2420-2955, stated change not applied): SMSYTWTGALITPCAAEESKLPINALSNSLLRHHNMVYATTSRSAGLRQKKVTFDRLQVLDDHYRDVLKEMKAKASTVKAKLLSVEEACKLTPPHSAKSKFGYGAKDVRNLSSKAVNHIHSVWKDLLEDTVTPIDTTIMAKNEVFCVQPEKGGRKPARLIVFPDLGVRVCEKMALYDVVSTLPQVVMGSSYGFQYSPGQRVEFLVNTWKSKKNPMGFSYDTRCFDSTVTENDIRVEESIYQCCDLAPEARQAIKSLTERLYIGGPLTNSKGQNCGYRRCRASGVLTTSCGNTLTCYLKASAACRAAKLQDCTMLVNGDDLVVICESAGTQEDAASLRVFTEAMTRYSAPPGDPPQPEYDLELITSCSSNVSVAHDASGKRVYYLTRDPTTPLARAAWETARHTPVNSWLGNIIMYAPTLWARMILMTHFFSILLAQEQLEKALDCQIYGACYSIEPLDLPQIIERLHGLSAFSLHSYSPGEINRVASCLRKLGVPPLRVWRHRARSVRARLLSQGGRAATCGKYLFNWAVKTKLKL
Procedure: Poly r(U) RNA template (Sigma) is employed for the HCV NS5b polymerase inhibition assay using a NS5bΔ55 (genotype 1b) purified enzyme. The kinetic constant, Km, is determined for the Poly r(U) template and ATP using a non-linear, least squares fit of initial rates as a function of substrate concentration assuming Michaelis-Menten kinetics.
Standard RdRp assays consist of 20 μg/mL Poly r(U) RNA template and 100 nM HCV NS5bΔ55 (genotype 1b) in a 50 μl reaction mixture containing 20 mM Tris-HCl, 5 mM MgCl2, 5 mM MnCl2, 3 mM DTT, 72 μM ATP, and 0.019 μM [α-^33P]ATP. Elongation reactions are initiated by the addition of ATP, and proceed for 60 min at 25° C. Reactions are quenched by the addition of 0.2 M EDTA, and product formation is collected by filtration through Multiscreen plates (Millipore). Quantification of product formation was performed using TopCount (Perkin Elmer). The inhibitor concentration at which the enzyme catalysed rate is reduced by half (IC50) is determined using a computer program for curve fitting.

[4] = In vitro anabolism of Compound 9, intracellular triphosphate in replicon cells; format: in vitro ADME, human; settings: human, Huh-7 cells carrying an HCV subgenomic replicon, Huh-7 replicon cells
Procedure: as §1
as §2, with “The resulting cell lysate is stored overnight at −80° C. and subsequently used to extract the metabolites of Compound 9. Isolation of Compound 9 and the intracellular metabolites of Compound 9 from plated primary human hepatocytes uses similar experimental conditions, except that InVitroGro Medium is used as the cell culture medium.” left out
(§4) Sample Analysis for intracellular nucleoside metabolites: The cell lysate samples are thawed on ice, and subjected to two freeze/thaw cycles in a dry ice/acetone bath. […] The respective metabolites are identified and quantified by comparing their chromatographic profiles and peak area response with those of authentic standards.

[5] = test system: Huh-7-HCV subgenomic replicon cells; test: as above; format: in vitro ADME, human; settings: Huh-7 replicon cells; 24 hours incubation with Compound 9 at 10 μM
Procedure: as §1
as §2, with “The resulting cell lysate is stored overnight at −80° C. and subsequently used to extract the metabolites of Compound 9. Isolation of Compound 9 and the intracellular metabolites of Compound 9 from plated primary human hepatocytes uses similar experimental conditions, except that InVitroGro Medium is used as the cell culture medium.” left out
as §4

[6] = read-out: Triphosphate decay half-life, Elimination phase (β, h)
[7] = read-out: Triphosphate decay half-life, Initial phase (α, h) (converted)

T1 sequence (P26663 2420-2955): as the sequence (P26663 2420-2955, stated change not applied) above

**Q.** For `C[C@@]1(O)[C@H](O)[C@@H](COP(=O)(O)OP(=O)(O)OP(=O)(O)O)O[C@H]1c1ccc2c(N)ncnn12` [Compound 25, 4-amino-7-(2-C-methyl-β-D-ribofuranosyl)-pyrrolo[2,1-f][1,2,4]triazine 5′-triphosphate], which Ki (HCV NS5b polymerase) is on record?
**A.** The Ki was 80 nM.

**Q.** And the “Intracellular Triphosphate Concentration (pmol/million cells, 24 hr incubation)” value ([1]; Human Hepatocytes, 24 hours incubation with Compound 9 at 10 μM)?
**A.** The value was 339 pmol/million cells.

**Q.** And the “intracellular triphosphate level in primary human hepatocytes relative to replicon cells” value ([1]; same experimental conditions, 10 μM Compound 9, 24 hours)?
**A.** The value was about 60 fold.

**Q.** And the half-life at 10 μM [2, 6]?
**A.** The half-life at 10 μM was at least 38 h.

**Q.** And the half-life at 10 μM [2, 7]?
**A.** Its half-life at 10 μM is 3.4 h.

**Q.** What about the IC50 [3] of the same compound?
**A.** The IC50 was 370 nM.

**Q.** And the half-life at 10 μM [4, 6]?
**A.** Its half-life at 10 μM is at least 38 h.

**Q.** What about the half-life at 10 μM [4, 7] of the same compound?
**A.** Its half-life at 10 μM is 0.59 h.

**Q.** And the “Intracellular Triphosphate Concentration (pmol/million cells, 24 hr incubation)” value [5]?
**A.** The value was 5.7 pmol/million cells.
